Earlier results, collected in patent publication US20070232597A1, “Compounds, Compositions, and Methods” (priority 2003, published 2007).

System: A549 cells
Details: data provided by National Cancer Institute, Developmental Therapeutic Program

Structure (SMILES)	GI50 [nM]
CC(=O)O[C@H]1C(=O)[C@@]2(C)[C@H]([C@H](OC(=O)c3ccccc3)[C@]3(O)C[C@H](OC(=O)[C@H](O)[C@@H](NC(=O)c4ccccc4)c4ccccc4)C(C)=C1C3(C)C)[C@]1(OC(C)=O)CO[C@@H]1C[C@@H]2O [paclitaxel]	4
O=c1[nH]cc(F)c(=O)[nH]1 [5-fluorouracil]	1000
COc1cccc2c1C(=O)c1c(O)c3c(c(O)c1C2=O)C[C@@](O)(C(=O)CO)C[C@@H]3O[C@H]1C[C@H](N)[C@H](O)[C@H](C)O1 [doxorubicin]	63
NC(=O)NO [hydroxyurea]	500000
